{
  "source": "ChEMBL document CHEMBL1147199",
  "about": "“Exploration of the correlation between the structure, hemolytic activity, and cytotoxicity of steroid saponins” (Bioorg Med Chem, 2007)",
  "assay": "Cytotoxicity against human erythrocytes assessed as hemolytic activity after 60 mins",
  "type": "cell-based, Erythrocyte",
  "conditions": "read-out: HD50",
  "data": [
    {"molecule": "CCCCCC(=O)O[C@H]1C[C@@H]2[C@H](CC[C@]3(C)[C@@H]4[C@H](C[C@@H]23)O[C@]2(CC[C@@H](C)CO2)[C@H]4C)[C@@]2(C)C[C@@H](O)[C@H](O[C@@H]3O[C@H](CO)[C@@H](O[C@H]4O[C@H](C)[C@@H](O)[C@H](O)[C@@H]4O)[C@H](O)[C@H]3O[C@H]3O[C@H](C)[C@@H](O)[C@H](O)[C@@H]3O)C[C@H]12", "values": [
      {"measurement": "HC50 at 1 h", "value": 7.6, "unit": "µM"}
    ]},
    {"molecule": "C[C@@H]1CC[C@@]2(OC1)O[C@H]1C[C@H]3[C@@H]4CC[C@H]5C[C@@H](O[C@@H]6O[C@H](CO)[C@H](O[C@H]7O[C@H](C)[C@@H](O)[C@H](O)[C@@H]7O)[C@H](O)[C@H]6O[C@@H]6O[C@@H](C)[C@H](O)[C@@H](O)[C@H]6O)[C@H](O)C[C@]5(C)[C@H]4CC[C@]3(C)[C@H]1[C@@H]2C", "values": [
      {"measurement": "HC50 at 1 h", "value": 9.6, "unit": "µM"}
    ]},
    {"molecule": "C/C=C/C=C/C(=O)NC[C@H]1O[C@@H](O[C@H]2CC[C@@]3(C)C(=CC[C@H]4[C@@H]5C[C@@H]6O[C@]7(CC[C@@H](C)CO7)[C@@H](C)[C@@H]6[C@@]5(C)CC[C@@H]43)C2)[C@H](O[C@H]2O[C@H](C)[C@@H](O)[C@H](O)[C@@H]2O)[C@@H](O)[C@@H]1O[C@H]1O[C@H](C)[C@@H](O)[C@H](O)[C@@H]1O", "values": [
      {"measurement": "HC50 at 1 h", "value": 9.3, "unit": "µM"}
    ]},
    {"molecule": "C=CCCCCCCCCC(=O)NC[C@H]1O[C@@H](O[C@H]2CC[C@@]3(C)C(=CC[C@H]4[C@@H]5C[C@@H]6O[C@]7(CC[C@@H](C)CO7)[C@@H](C)[C@@H]6[C@@]5(C)CC[C@@H]43)C2)[C@H](O[C@H]2O[C@H](C)[C@@H](O)[C@H](O)[C@@H]2O)[C@@H](O)[C@@H]1O[C@H]1O[C@H](C)[C@@H](O)[C@H](O)[C@@H]1O", "values": [
      {"measurement": "HC50 at 1 h", "value": "> 50", "unit": "µg/mL"}
    ]},
    {"molecule": "C[C@@H]1CC[C@@]2(OC1)O[C@H]1C[C@H]3[C@@H]4CC[C@H]5C[C@@H](O[C@@H]6O[C@H](CO)[C@H](O)[C@H](O)[C@H]6O[C@H]6O[C@H](C)[C@@H](O)[C@H](O)[C@@H]6O)[C@H](O)C[C@]5(C)[C@H]4CC[C@]3(C)[C@H]1[C@@H]2C", "values": [
      {"measurement": "HC50 at 1 h", "value": 7.5, "unit": "µM"}
    ]},
    {"molecule": "C[C@@H]1CC[C@@]2(OC1)O[C@H]1C[C@H]3[C@@H]4CC=C5C[C@@H](O[C@@H]6O[C@H](CNC(=O)CCCCl)[C@@H](O[C@H]7O[C@H](C)[C@@H](O)[C@H](O)[C@@H]7O)[C@H](O)[C@H]6O[C@H]6O[C@H](C)[C@@H](O)[C@H](O)[C@@H]6O)CC[C@]5(C)[C@H]4CC[C@]3(C)[C@H]1[C@@H]2C", "values": [
      {"measurement": "HC50 at 1 h", "value": 20.9, "unit": "µM"}
    ]},
    {"molecule": "C[C@@H]1CC[C@@]2(OC1)O[C@H]1C[C@H]3[C@@H]4CC=C5C[C@@H](O[C@@H]6O[C@H](CNC(=O)c7ccccc7)[C@@H](O[C@H]7O[C@H](C)[C@@H](O)[C@H](O)[C@@H]7O)[C@H](O)[C@H]6O[C@H]6O[C@H](C)[C@@H](O)[C@H](O)[C@@H]6O)CC[C@]5(C)[C@H]4CC[C@]3(C)[C@H]1[C@@H]2C", "values": [
      {"measurement": "HC50 at 1 h", "value": 10.7, "unit": "µM"}
    ]},
    {"molecule": "C[C@@H]1CC[C@@]2(OC1)O[C@H]1C[C@H]3[C@@H]4CC=C5C[C@@H](O[C@@H]6O[C@H](CN=[N+]=[N-])[C@@H](O[C@H]7O[C@H](C)[C@@H](O)[C@H](O)[C@@H]7O)[C@H](O)[C@H]6O[C@H]6O[C@H](C)[C@@H](O)[C@H](O)[C@@H]6O)CC[C@]5(C)[C@H]4CC[C@]3(C)[C@H]1[C@@H]2C", "values": [
      {"measurement": "HC50 at 1 h", "value": "> 50", "unit": "µg/mL"}
    ]},
    {"molecule": "C[C@@H]1CC[C@@]2(OC1)O[C@H]1C[C@H]3[C@@H]4CC=C5C[C@@H](O[C@@H]6O[C@H](CNC(=O)c7ccccc7I)[C@@H](O[C@H]7O[C@H](C)[C@@H](O)[C@H](O)[C@@H]7O)[C@H](O)[C@H]6O[C@H]6O[C@H](C)[C@@H](O)[C@H](O)[C@@H]6O)CC[C@]5(C)[C@H]4CC[C@]3(C)[C@H]1[C@@H]2C", "values": [
      {"measurement": "HC50 at 1 h", "value": 7.4, "unit": "µM"}
    ]},
    {"molecule": "C[C@@H]1CC[C@@]2(OC1)O[C@H]1C[C@H]3[C@@H]4CC=C5C[C@@H](O[C@@H]6O[C@H](CNC(=O)C(F)(F)F)[C@@H](O[C@H]7O[C@H](C)[C@@H](O)[C@H](O)[C@@H]7O)[C@H](O)[C@H]6O[C@H]6O[C@H](C)[C@@H](O)[C@H](O)[C@@H]6O)CC[C@]5(C)[C@H]4CC[C@]3(C)[C@H]1[C@@H]2C", "values": [
      {"measurement": "HC50 at 1 h", "value": 18.5, "unit": "µM"}
    ]},
    {"molecule": "CCCCCCCCCCCCCCCCCC(=O)NC[C@H]1O[C@@H](O[C@H]2CC[C@@]3(C)C(=CC[C@H]4[C@@H]5C[C@@H]6O[C@]7(CC[C@@H](C)CO7)[C@@H](C)[C@@H]6[C@@]5(C)CC[C@@H]43)C2)[C@H](O[C@H]2O[C@H](C)[C@@H](O)[C@H](O)[C@@H]2O)[C@@H](O)[C@@H]1O[C@H]1O[C@H](C)[C@@H](O)[C@H](O)[C@@H]1O", "values": [
      {"measurement": "HC50 at 1 h", "value": "> 50", "unit": "µg/mL"}
    ]},
    {"molecule": "C[C@@H]1CC[C@@]2(OC1)O[C@H]1C[C@H]3[C@@H]4CC=C5C[C@@H](O[C@@H]6O[C@H](CNC(=O)c7ccc([N+](=O)[O-])cc7)[C@@H](O[C@H]7O[C@H](C)[C@@H](O)[C@H](O)[C@@H]7O)[C@H](O)[C@H]6O[C@H]6O[C@H](C)[C@@H](O)[C@H](O)[C@@H]6O)CC[C@]5(C)[C@H]4CC[C@]3(C)[C@H]1[C@@H]2C", "values": [
      {"measurement": "HC50 at 1 h", "value": 39, "unit": "µM"}
    ]},
    {"molecule": "C[C@@H]1CC[C@@]2(OC1)O[C@H]1C[C@H]3[C@@H]4CC=C5C[C@@H](O[C@@H]6O[C@H](CN)[C@@H](O[C@H]7O[C@H](C)[C@@H](O)[C@H](O)[C@@H]7O)[C@H](O)[C@H]6O[C@H]6O[C@H](C)[C@@H](O)[C@H](O)[C@@H]6O)CC[C@]5(C)[C@H]4CC[C@]3(C)[C@H]1[C@@H]2C", "values": [
      {"measurement": "HC50 at 1 h", "value": 24.8, "unit": "µM"}
    ]},
    {"molecule": "COc1ccc(C(=O)NC[C@H]2O[C@@H](O[C@H]3CC[C@@]4(C)C(=CC[C@H]5[C@@H]6C[C@@H]7O[C@]8(CC[C@@H](C)CO8)[C@@H](C)[C@@H]7[C@@]6(C)CC[C@@H]54)C3)[C@H](O[C@H]3O[C@H](C)[C@@H](O)[C@H](O)[C@@H]3O)[C@@H](O)[C@@H]2O[C@H]2O[C@H](C)[C@@H](O)[C@H](O)[C@@H]2O)cc1", "values": [
      {"measurement": "HC50 at 1 h", "value": 9.5, "unit": "µM"}
    ]},
    {"molecule": "CCCCCCCCCC(=O)O[C@H]1C[C@@H]2[C@H](CC[C@]3(C)[C@@H]4[C@H](C[C@@H]23)O[C@]2(CC[C@@H](C)CO2)[C@H]4C)[C@@]2(C)C[C@@H](O)[C@H](O[C@@H]3O[C@H](CO)[C@@H](O[C@H]4O[C@H](C)[C@@H](O)[C@H](O)[C@@H]4O)[C@H](O)[C@H]3O[C@H]3O[C@H](C)[C@@H](O)[C@H](O)[C@@H]3O)C[C@H]12", "values": [
      {"measurement": "HC50 at 1 h", "value": 6.7, "unit": "µM"}
    ]},
    {"molecule": "CC(=O)NC[C@H]1O[C@@H](O[C@H]2CC[C@@]3(C)C(=CC[C@H]4[C@@H]5C[C@@H]6O[C@]7(CC[C@@H](C)CO7)[C@@H](C)[C@@H]6[C@@]5(C)CC[C@@H]43)C2)[C@H](O[C@H]2O[C@H](C)[C@@H](O)[C@H](O)[C@@H]2O)[C@@H](O)[C@@H]1O[C@H]1O[C@H](C)[C@@H](O)[C@H](O)[C@@H]1O", "values": [
      {"measurement": "HC50 at 1 h", "value": "> 50", "unit": "µg/mL"}
    ]},
    {"molecule": "CCCCCCCCCCCCCC(=O)NC[C@H]1O[C@@H](O[C@H]2CC[C@@]3(C)C(=CC[C@H]4[C@@H]5C[C@@H]6O[C@]7(CC[C@@H](C)CO7)[C@@H](C)[C@@H]6[C@@]5(C)CC[C@@H]43)C2)[C@H](O[C@H]2O[C@H](C)[C@@H](O)[C@H](O)[C@@H]2O)[C@@H](O)[C@@H]1O[C@H]1O[C@H](C)[C@@H](O)[C@H](O)[C@@H]1O", "values": [
      {"measurement": "HC50 at 1 h", "value": "> 50", "unit": "µg/mL"}
    ]}
  ]
}
